85 compounds from ChEMBL document CHEMBL1157539, “Thousands of chemical starting points for antimalarial lead identification” (Nature, 2010) can be followed below.

Molecules are shown by their SMILES.

The test system of this assay is Plasmodium falciparum. Description: GSK_TCMDC: Inhibition of Plasmodium falciparum 3D7 in whole erythrocytes, using parasite LDH activity as an index of growth. It counts as functional, organism-based. As to conditions: Plasmodium falciparum, 3D7.
`Nc1nc(N)c2c(Sc3ccccc3)cccc2n1` returned an XC50 of 645 nM.

In turn, `CC1(C)CCCN(Cc2c(O)ccc3c(O)c(-c4nc5ccccc5s4)c(=N)oc23)C1` gave an XC50 of 337 nM.

The compound `CCc1nc(N)nc(N)c1-c1ccccc1` returned an XC50 of 1180 nM.

Turning to `O=C(NCCCCCN1CCC(c2c[nH]c3ccccc23)CC1)Nc1ccc(Cl)c(Cl)c1`, the XC50 is 920 nM.

The compound `CCN(CC)CCN(Cc1ccc(-c2ccc(C(F)(F)F)cc2)cc1)C(=O)c1ccc(-c2ccc(C#N)cc2)cc1` showed an XC50 of 1110 nM.

For `O=C(NCCN1CCCC1)N1CCCN(c2ncnc3cc(-c4ccc(Cl)cc4)sc23)CC1`, the XC50 came to 918 nM.

`Cc1cc(N[C@@H](Cc2ccccc2)C(=O)NCc2cccs2)nc(NCCOc2ccccc2)n1`: the XC50 turned out to be 1480 nM.

On to `CCCN(CCC)C(=O)c1cc(-c2cccc(C)c2)nc2ccccc12`, for which the XC50 stood at 1060 nM.

`Cc1ccc(C(NC(=O)c2ccccc2)c2ccc3cccnc3c2O)cc1` (stereo not given): the XC50 worked out at 961 nM.

`COc1cccc(-c2ccc(C(=O)NCC3CCCN(Cc4cccc(C(F)(F)F)c4)C3)s2)c1` (stereo not given) registered an XC50 of 1140 nM.

In turn, `CC(C)Cc1ccc(N2CCN(CCCCNC(=O)c3ccc(NC(=O)c4cc(C(F)(F)F)cc(C(F)(F)F)c4)cc3)CC2)cc1` showed an XC50 of 179 nM.

`CC(C)(C)c1ccc(NC(=O)c2cccc(CN3CCN(Cc4cccc(O)c4)CC3)c2)cc1`: the XC50 is 1400 nM.

For `O=C(/C=C/c1ccc(Cl)c(Cl)c1)NCCCCCN1CCC(NC(=O)c2ccc(F)cc2F)CC1`, the XC50 came to 759 nM.

In the case of `CCCc1cc(C)ccc1OCCCON1C(NC(=O)OCC)=NC(NC(=O)OCC)=NC1(C)C`, the XC50 is 35.9 nM.

Compound `CCc1nc(N)nc(N)c1-c1ccc(F)c(F)c1` came in with an XC50 of 417 nM.

As for `Cc1cc(O)c(-c2ccc(Oc3ccc(F)cc3)cc2)c(C)n1`, the XC50 amounted to 972 nM.

Compound `COC(=O)c1ccc(C(=O)NCCCCN2CCC(c3ccc4c(c3OC)CCCC4)CC2)cc1-c1ccc(C(F)(F)F)cc1` gave an XC50 of 1150 nM.

In turn, `O=C(NCCc1ccccc1)N(Cc1ccccc1-c1ccc(CNCCc2ccccc2)cc1)C1CCN(Cc2ccccc2)CC1` registered an XC50 of 716 nM.

`CC1(C)NC(N)=NC(=N)N1OCCCOc1cccc(Cl)c1`: the XC50 was determined as 3.2 nM.

Take `O=C(/C=C/c1ccc(Cl)c(Cl)c1)NCCCCCN1CCC(NC(=O)Nc2cccc(Cl)c2F)CC1`: the XC50 was 378 nM.

As for `COc1cccc(Nc2c(C(N)=O)cnc3ccc(-c4ccc([S+](C)[O-])cc4)cc23)c1` (stereo not given), the XC50 is 186 nM.

`Cc1nn(C)cc1C(C)Nc1nncc(-c2ccc(C(F)(F)F)cc2)n1` (stereo not given) gave an XC50 of 246 nM.

Compound `Oc1ccc2ccccc2c1CNC1CCCCCC1` had an XC50 of 933 nM.

`O=C(NCCCCCCNCc1ccc(-c2ccccc2)cc1)Nc1ccc(Cl)c(Cl)c1` registered an XC50 of 962 nM.

As to `Cc1[nH]c2ccc(-c3ccc(N(C)C)cc3)cc2c(=O)c1Cl`, the XC50 amounted to 720 nM.

For the compound `CN(C)CCOc1cccc(-c2cnc(N)c(-c3nc4cc(S(C)(=O)=O)ccc4[nH]3)c2)c1`, the XC50 worked out at 950 nM.

`Cc1noc(C)c1-c1cccc(CNCc2cccc(-c3cccc(-c4nc5cccc(C)c5[nH]4)c3)c2)c1` came in with an XC50 of 370 nM.

Turning to `CCOC(=O)Cn1ccc2c(NCc3ccccc3)nc(C)nc21`, the XC50 came to 374 nM.

As for `N=C(NCC1CC1c1ccccc1)c1cccc(C(=N)NCC2CC2c2ccccc2)n1` (stereo not given), the XC50 is 1760 nM.

`CN(C)CCCn1c(N)c(-c2nc3ccccc3[nH]2)c2nc(C#N)c(C#N)nc21` came in with an XC50 of 591 nM.

In the case of `O=C(Nc1ccc2nc3n(c(=O)c2c1)CCCCC3)C(=O)N1CCC(Cc2ccccc2)CC1`, the XC50 was determined as 757 nM.

On to `O=C(/C=C/c1ccc(Cl)c(Cl)c1)NCCCCCN1CCC(NC(=O)Nc2ccc(OC(F)F)cc2)CC1`, for which the XC50 is 754 nM.

Compound `Nc1c2ccccc2nc2cc([N+](=O)[O-])ccc12` had an XC50 of 870 nM.

`COc1ccc2nccc([C@@H](O)CN3CCC(NCc4cc5cccc(O)c5c(=O)[nH]4)CC3)c2c1` came in with an XC50 of 385 nM.

`N#Cc1c(N)nc(SCC(=O)Nc2cc(C(F)(F)F)ccc2Cl)c(C#N)c1-c1cccs1` showed an XC50 of 743 nM.

With `CC(C)COc1ccc(Cl)cc1Cc1ccc(-c2nc3cc(N4CCN(C)CC4)ccc3[nH]2)o1`, the XC50 amounted to 945 nM.

`CCCCCSc1cc(O)c(C(CNC)C(C)C)cc1OC` (stereo not given): the XC50 is 163 nM.

In turn, `Oc1ccc2[nH]c(-c3cccs3)nc2c1CN1CCC(O)(c2ccccc2)CC1` came in with an XC50 of 782 nM.

Compound `CCOc1c(CNCCCNc2cc(=O)c3ccccc3[nH]2)cc(I)cc1C(C)(C)C` displayed an XC50 of 703 nM.

In turn, `C#CCNCc1ccc(-c2ccc(-c3nc4cc(C(F)(F)F)ccc4[nH]3)s2)cc1` yielded an XC50 of 744 nM.

`COc1cc(C(F)(F)F)nc2c(CNCCCNc3cc(=O)c4ccccc4[nH]3)scc12` had an XC50 of 1180 nM.

The compound `CN(c1ccc(NC(=O)Nc2cc(C(F)(F)F)ccc2F)cc1)c1ccnc(NCCN2CCCC2)n1` returned an XC50 of 1150 nM.

Take `NC1=NC(c2ccccc2)(c2ccccc2)C(=O)N1CCCCc1ccccc1`: the XC50 came out at 760 nM.

Compound `COc1ccc(CNCc2cccc(-c3ccc(-c4nc5cccc(C)c5[nH]4)cc3)c2)cc1` had an XC50 of 237 nM.

Turning to `O=C(C=Cc1cn(-c2ccccc2)nc1-c1ccccc1)N1CCN(c2ccncc2)CC1`, the XC50 came to 965 nM.

`O=C(Nc1cccc(Oc2ccccc2)c1)N[C@H]1CCN(Cc2ccc(OCCCN3CCCCC3)cc2)C1` displayed an XC50 of 724 nM.

Take `CC[C@H](C)CNC(=O)c1cncc(-c2cccc(CN3CCC(N4CCCC4)CC3)c2)c1`: the XC50 worked out at 1170 nM.

Compound `CCOC(=O)c1ccc(CC(C)NCC(O)c2cccc(C(F)(F)F)c2)cc1` (stereo not given) showed an XC50 of 216 nM.

`CC(C)c1cccc(C(NC(=O)[C@H]2Cc3ccccc3CN2C(=O)c2cccc(N3CCOCC3)c2)C2CCCC2)c1` (stereo not given in full) registered an XC50 of 723 nM.

Compound `COc1ccc(C2(CNCC(O)c3cccc([N+](=O)[O-])c3)CCCC2)cc1OC` (stereo not given) gave an XC50 of 891 nM.

In turn, `O=C(NC1CCC(CN2CCC(c3c[nH]c4ccccc34)CC2)CC1)C1(O)c2ccccc2-c2ccccc21` (stereo not given) yielded an XC50 of 1190 nM.

On to `O=C(Nc1cc(Cl)ccc1O)c1cc(-c2ccccc2O)no1`, for which the XC50 is 1090 nM.

Consider `CCc1cn2c3c(cc(C(=O)N[C@@H](Cc4ccccc4)[C@H](O)CN[C@@H](C)CC)cc13)N(C)S(=O)(=O)CC2`, for which the XC50 was found to be 74.5 nM.

`CCn1nc(C(=O)NC2CCOc3ccccc32)c2ccccc2c1=O` (stereo not given) came in with an XC50 of 1230 nM.

Take `NCCCNc1ccc(-c2ccc(NC(=O)Nc3cc(C(F)(F)F)ccc3F)cc2)cn1`: the XC50 is 837 nM.

Consider `COc1ccc(C2CCC(NCCCCNC(=O)c3ccc(NC(=O)c4ccc(Cl)cc4)cc3)CC2)cc1` (stereo not given), for which the XC50 was 627 nM.

With `N#Cc1cc([N+](=O)[O-])ccc1-n1nc(-c2cccc(Cl)c2)n(CC2CCCO2)c1=S` (stereo not given), the XC50 turned out to be 914 nM.

For `COc1cc(NC(=O)N2CCOC(CCN3CCC(c4ccccc4)CC3)(c3ccc(Cl)c(Cl)c3)C2)cc(OC)c1OC` (stereo not given), the XC50 worked out at 65.1 nM.

`Cc1ccccc1C1CCN(C2CCC(NC(=O)/C=C/c3ccc(Cl)cc3)CC2)CC1` (stereo not given) displayed an XC50 of 805 nM.

For the compound `CN1CCC(C(=O)N(Cc2ccc(-c3ccc(CNCCc4ccc(S(C)(=O)=O)cc4)cn3)cc2)Cc2ccc3c(c2)OCO3)CC1`, the XC50 came out at 1000 nM.

Turning to `CN(C)CC1CCCN1Cc1ccccc1-c1cnn(C)c(=O)c1Oc1ccccc1F` (stereo not given), the XC50 worked out at 1310 nM.

Consider `O=C(C=Cc1ccc(Cl)c(Cl)c1)NCCCCCN1CCC(CCCNC(=O)c2ccc3c(c2)OCO3)CC1`, for which the XC50 was 149 nM.

`N#Cc1cccc(NC(=O)NC2CCN(CCCCCNC(=O)/C=C/c3ccc(Cl)c(Cl)c3)CC2)c1` yielded an XC50 of 707 nM.

On to `COc1cc(NC(=O)c2cc3c(C)nn(-c4cccc(C(F)(F)F)c4)c3s2)cc(OC)c1OC`, for which the XC50 was determined as 801 nM.

Take `Cn1cccc1C(=O)NCC(CCNc1cc(=O)c2ccccc2[nH]1)NCc1cc(Br)cc(Br)c1` (stereo not given): the XC50 was found to be 911 nM.

The compound `C=C(C)CSc1nc2c(c(=O)n1Cc1ccco1)C1(CCCCC1)Cc1ccccc1-2` displayed an XC50 of 997 nM.

The compound `CCCNCc1ccc(-c2ccc(CN(CCOC)C(=O)c3ccc([N+](=O)[O-])c(C)c3)cc2)nc1` gave an XC50 of 868 nM.

`N#Cc1ccc(NC(=O)Nc2ccc3c(c2)CCN(C2CCC2)CC3)cc1` displayed an XC50 of 628 nM.

`COc1cc(F)c2ncc(Cl)c([C@@H](O)CN3CCC(NCc4ccc5c(n4)NC(=O)CO5)CC3)c2c1` returned an XC50 of 124 nM.

Take `CC(C)c1ccc2c(c1)C(=O)c1ccc(C(=O)O)cc1S2(=O)=O`: the XC50 amounted to 472 nM.

As for `Clc1cc2c(Nc3ccc(Oc4ccccc4)cc3)ccnc2cc1-c1ccc(CNCCN2CCOCC2)o1`, the XC50 was determined as 707 nM.

`Cc1ccc(Nc2nc(C)cc(N3CCN(c4ccccc4)CC3)n2)cc1` gave an XC50 of 1530 nM.

Take `COCCNc1nc(N2CCC(CNC(=O)c3ccc(-c4ccc(C(=O)N(C)C)cc4C)cc3)CC2)nc2cc(OC)c(OC)cc12`: the XC50 came out at 1020 nM.

`CC(C)(CNC(=O)[C@@H]1CCCN(Cc2ccc(Cl)cc2)C1)c1nc(-c2ccc(Cl)c(O)c2)c(-c2ccncc2)[nH]1`: the XC50 was found to be 941 nM.

Consider `O=C(Nc1ccc(Cl)cc1)Nc1cccc(-c2cc(CNCCc3ccccc3)oc2-c2ccncc2)c1`, for which the XC50 was 279 nM.

Consider `Cc1ccc(C(=O)N2CCc3cc4nccc(N5CCN6CCC[C@H]6C5)c4cc32)cc1`, for which the XC50 came to 1100 nM.

The compound `Cn1nc(-c2ccc(CNC3CCc4ccccc43)cc2)c2cnc(NCCN3CCCC3)nc21` (stereo not given) had an XC50 of 1350 nM.

`CC(CN1CCN(C)CC1)C(=O)Nc1cccc(-c2ccc(-c3nc4ccccc4[nH]3)cc2)c1` (stereo not given) showed an XC50 of 943 nM.

Regarding `O=C(Cc1ccc(-n2cnnn2)cc1)N(Cc1cncn1Cc1cccc(C(F)(F)F)c1)CC1CC1`, the XC50 came out at 962 nM.

For `CCc1nc2c(N)nc(N)nc2nc1-c1ccc(OC)cc1`, the XC50 turned out to be 1200 nM.

Compound `O=C(CCc1c[nH]cn1)Nc1cccc(-c2ccc(-c3nc4ccccc4[nH]3)cc2)c1` came in with an XC50 of 651 nM.

Take `O=C(c1cc(-c2ccccc2)n[nH]1)N1CCN(S(=O)(=O)c2ccc(Cl)s2)CC1`: the XC50 was 925 nM.

The compound `O=C(Nc1ccc(-c2ccc(-c3nc4ccccc4[nH]3)s2)cc1)Nc1ccsc1` came in with an XC50 of 279 nM.

In the case of `C=CCn1c(Sc2ccc(C#N)c([N+](=O)[O-])c2)nnc1-c1cc(OC)cc(OC)c1`, the XC50 turned out to be 436 nM.

With `CCOc1cc(CC)ccc1C1CCN(CCCCNC(=O)c2ccc(NC(=O)c3ccc(C#N)cc3)cc2)CC1`, the XC50 worked out at 504 nM.
